Entries after “also recorded” stand apart in the source; their conditions may differ.
How the values were obtained:
[1] = system: nondystrophic and mdx TS muscle fibers; assay: Effect of Gd^3+ on resting membrane potential of isolated TS muscle preparations; assay type: cell-based, mice
Method: The effect of the Ca^2+ channel blocker, Gd^3+, on the resting membrane potential was examined in both nondystrophic and mdx TS muscle preparations. Gd^3+ blocks both nonselective cation channels and more Ca^2+-selective leak channels (Franco et al., 1991 and Yang and Sachs, 1989) and, at concentrations of 20-100 μM, eliminates fluorometric determinations of resting Ca^2+ influx in a variety of cells (Broad et al., 1999, Carlson and Geisbuhler, 2003, Cox et al., 2002 and Samadi et al., 2005). […]
The potential effect of Gd^3+ on resting potential was determined in several nondystrophic (5-17 months) and mdx (5-11.5 months) TS preparations by first recording from several cells in normal HEPES Ringer solution, and then adding 100 μM GdCl3 to the solution while recording continuously from a single fiber. After removing the electrode from the fiber, the resting potential of several additional fibers were determined in the presence of the lanthanide. The average resting potential in nondystrophic fibers bathed in normal HEPES Ringer was −50.1±1.4 (SE) mV, a value lower than that recorded in this laboratory from nondystrophic diaphragm (−63±1.3 mV, N=98 fibers, 5 weeks to 2 years of age; Carlson and Roshek, 2001).

[2] = system: nuclear NF-κB activation; conditions: long term treatment; Durham et al. (2006); cited from earlier work
[3] = Observation of viability, side effects and body weight during treatment
[4] = system: IL6; assay: ELISA of IL6 in cytosolic muscle extracts after single sulfasalazine injection; assay type: in vivo, mdx mice; conditions: costal and crural diaphragms; SS 100 mg/kg ip single injection, 3 hours
Source text: (§1) Each diaphragm was divided into costal and crural regions which were processed and analyzed separately. After determining protein concentrations for each of the cytosolic and nuclear extracts (Lowry assay), samples of each extract were used to obtain standard ELISA determinations of mouse TNFα, IL-6, and IL-1β using standard procedures (Assay Designs, Inc.). These particular NFκB products were chosen because of their role in the inflammatory reaction and previously published results indicating the presence of these cytokines in nondystrophic skeletal muscle homogenates (Molina et al., Neuroimmunomodulation, 4, 28-36, 1997; Jonsdottir et al., J. of Physiol. (Lond.), 528.1, 157-163, 2000; Lang et al., Shock, 19(6), 538-546, 2003).
(§2) MDX mice aged 3 to 3.5 months were injected with either SS (100 mg/kg) or vehicle (HEPES Ringer; in mM: 147.5 NaCl, 5 KCl, 2 CaCl2, 11 glucose, 5 HEPES, pH 7.35) and euthanized at 3 hours post-injection. The costal and crural diaphragms and the gastrocnemius muscle were then immediately removed and flash frozen before beginning the procedure to obtain nuclear and cytosolic extracts as described in Example 10. ELISA determinations of TNFα, Il1-β, and IL6 were determined as described in Example 9.

[5] = system: nuclear NFκB; assay: EMSA of nuclear NFκB binding in costal diaphragm nuclear extracts after single injection; assay type: in vivo, mdx mice; conditions: sulfasalazine 100 mg/kg ip single injection, 3 hours, mdx 3 to 3.5 months
Method: MDX mice aged 3 to 3.5 months were injected with either sulfasalazine (SS; 100 mg/kg, ip) or vehicle (HEPES Ringer; in mM: 147.5 NaCl, 5 KCl, 2 CaCl2, 11 glucose, 5 HEPES, pH 7.35) and euthanized at 3 hours post-injection. The costal diaphragms were removed and flash frozen before beginning the extract procedure. Nuclear and cytosolic extracts were obtained using a procedure slightly modified from that described in Carlson et al. (2005) and Kumar and Boriek (2003). […] Protein determinations were determined by the method of Lowry using bovine serum albumin standards (20 μg nuclear protein was added to each lane).
; in mM: 147.5 NaCl, 5 KCl, 2 CaCl2, 11 glucose, 5 HEPES, pH 7.35; 0.1% DMSO) and euthanized at 3 hours post-injection. […] Protein determinations were determined by the method of Lowry using bovine serum albumin standards (20 μg nuclear protein was added to each lane).

[6] = system: IL1-β; assay: ELISA of IL1-β in cytosolic muscle extracts after single sulfasalazine injection; assay type: in vivo, mdx mice; conditions: SS 100 mg/kg ip single injection, 3 hours
Source text: as §1, §2

[7] = system: mdx TS muscle fibers; assay: Intracellular recording of resting membrane potential in TS muscle fibers after chronic treatment; assay type: in vivo, mdx mice; conditions: sulfasalazine 100 mg/kg ip daily 68 days, vs vehicle littermate
[8] = system: TNFα; assay: ELISA of TNFα in cytosolic muscle extracts after single sulfasalazine injection; assay type: in vivo, mdx mice; conditions: mdx costal diaphragm; SS 100 mg/kg ip single injection, 3 hours
Source text: as §1, §2

SMILES: [Cl][Gd]([Cl])[Cl] [Gd^3+, GdCl3]
- change in resting potential, total sample of fibers ([1]; 100 μM GdCl3, failed to reach statistical significance in nondystrophic or mdx): slight hyperpolarization
- effect on resting potential when added during recording ([1]; 100 μM GdCl3 added while recording from nondystrophic or mdx fibers): No effect

SMILES: COc1cc(/C=C/C(=O)CC(=O)/C=C/c2ccc(O)c(OC)c2)ccc1O [curcumin, diferuloylmethane]
- nuclear NF-κB activation in mdx costal diaphragm [2]: did not reduce

SMILES: O=C(O)c1cc(/N=N/c2ccc(S(=O)(=O)Nc3ccccn3)cc2)ccc1O [sulfasalazine, Sulfasalazine]
- body weight ([3]; SS 100 mg/kg ip daily 68 days): maintained their body weight
- side-effects of chronic treatment schedule ([3]; SS 100 mg/kg ip daily 68 days): no obvious side-effects
- side effects after injection ([3]; SS 100 mg/kg ip, aside from 5 to 10 sec restlessness): no obvious side effects
- expression of IL6 in cytosolic extracts [4]: did reduce; also recorded: reduced
- nuclear NFκB binding to consensus sequence / nuclear NF-kappaB activation [5]: may reduce
- nuclear NFκB binding to consensus sequence / nuclear NF-kappaB activation ([5]; listed as SS): reduction
- expression of IL1-β in cytosolic extracts [6]: did not reduce; also recorded: not influenced
- resting potential of TS muscle fibers [7]: significantly improves
- resting potential of TS muscle fibers ([7]; listed as SS): significantly improved
- expression of TNFα in cytosolic extracts [8]: reduced
